The results in this text go back to patent publication US9255100B2 (BAYER INTELLECTUAL PROPERTY GMBH, priority 2010, dated 2016).

SMILES strings stand for the structures. Some results are limits rather than exact numbers.

This assay has as its target T1, N-terminally GST-tagged human full length recombinant Mps-1 kinase (Homo sapiens, UniProt P33981).
T1 construct: N-terminally GST-tagged human full length recombinant Mps-1 kinase; purchased Invitrogen, Karslruhe, Germany PV4071
T1 sequence (P33981 1-857): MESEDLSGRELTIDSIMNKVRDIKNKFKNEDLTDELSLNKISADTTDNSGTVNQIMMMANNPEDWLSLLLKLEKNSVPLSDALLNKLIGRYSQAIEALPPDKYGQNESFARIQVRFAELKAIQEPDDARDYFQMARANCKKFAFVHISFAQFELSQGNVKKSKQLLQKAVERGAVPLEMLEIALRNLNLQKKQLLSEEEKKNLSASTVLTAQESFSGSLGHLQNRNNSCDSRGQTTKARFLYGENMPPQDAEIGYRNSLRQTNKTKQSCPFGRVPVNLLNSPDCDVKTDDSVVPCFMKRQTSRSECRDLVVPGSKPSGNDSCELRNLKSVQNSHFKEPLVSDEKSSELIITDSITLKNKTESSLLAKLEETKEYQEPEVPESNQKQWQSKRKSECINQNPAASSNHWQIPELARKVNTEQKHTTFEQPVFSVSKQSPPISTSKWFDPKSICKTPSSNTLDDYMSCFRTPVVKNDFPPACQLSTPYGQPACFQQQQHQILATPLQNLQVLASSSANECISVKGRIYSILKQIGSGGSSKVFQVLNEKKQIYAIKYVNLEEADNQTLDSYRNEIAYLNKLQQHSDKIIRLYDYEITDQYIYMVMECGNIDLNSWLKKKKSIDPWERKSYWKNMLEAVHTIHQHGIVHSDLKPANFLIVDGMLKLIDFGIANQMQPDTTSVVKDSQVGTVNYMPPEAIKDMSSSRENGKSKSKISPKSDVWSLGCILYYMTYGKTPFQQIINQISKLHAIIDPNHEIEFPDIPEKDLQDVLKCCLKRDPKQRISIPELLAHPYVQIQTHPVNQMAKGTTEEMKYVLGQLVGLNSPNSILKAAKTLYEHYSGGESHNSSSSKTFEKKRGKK
Put plainly: Mps-1 kinase assay (TR-FRET). The assay is classed as biochemical. The conditions noted are these: Mps1 IC50 [nM], 10 μM ATP, 1 μM peptide substrate, 60 min at 22° C. An outline of the steps:
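Inhibition of Mps-1 (N-terminal GST fusion, full length) toward a biotinylated peptide is read as Eu-to-XLent TR-FRET. Enzyme level, around 1 nM final, follows lot activity.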
A general note: In TR-FRET formats the signal depends on donor and acceptor labels being close together.
As usually defined, the IC50 is the point on the concentration scale where inhibition reaches its midpoint. `C=Cc1cccc(Nc2cc(NCC(C)(C)O)c3ncc(-c4ccc(C(=O)NC5CC5)c(C)c4)n3n2)c1` [Example 409, N-cyclopropyl-4-{6-[(3-ethenylphenyl)amino]-8-[(2-hydroxy-2-methylpropyl)amino]imidazo[1,2-b]pyridazin-3-yl}-2-methylbenzamide]: the IC50 is 0.7 nM.

Take `CCNC(=O)c1ccc(-c2cnc3c(NCCOC)cc(Oc4ccc(OC)cc4F)nn23)cc1C` [Example 608, N-ethyl-4-{6-(2-fluoro-4-methoxyphenoxy)-8-[(2-methoxyethyl)a-mino]imidazo[1,2-b]pyridazin-3-yl}-2-methylbenzamide]: the IC50 came to 3.9 nM.

For the compound `Cc1cc(-c2cnc3c(NCCC(F)(F)F)cc(S(=O)(=O)c4ccccc4)nn23)ccc1C(=O)NC1CC1` [Example 212, N-cyclopropyl-2-methyl-4-{6-(phenylsulfonyl)-8-[(3,3,3-trifluoropropyl)amino]imidazo[1,2-b]pyridazin-3-yl}benzamide], the IC50 is less than 1 nM.

As for `Cc1cc(-c2cnc3c(NCC(C)(C)O)cc(Oc4cncc(C(N)=O)c4)nn23)ccc1C(=O)NC1CC1` [Example 411, 5-({3-[4-(cyclopropylcarbamoyl)-3-methylphenyl]-8-[(2-hydroxy-2-methylpropyl)amino]imidazo[1,2-b]pyridazin-6-yl}oxy)nicotinamide], the IC50 amounted to 4.8 nM.

With `Cc1cc(-c2cnc3c(NCC(C)(C)O)cc(Sc4ccc(F)cc4)nn23)ccc1C(=O)NC1CC1` [Example 71, N-cyclopropyl-4-{6-[(4-fluorophenyl)sulfanyl]-8-[(2-hydroxy-2-methylpropyl)amino]imidazo[1,2-b]pyridazin-3-yl}-2-methylbenzamide], the IC50 was 0.8 nM.

As for `CNC(=O)c1ccc(-c2cnc3c(NCCC(F)(F)F)cc(Oc4cc(F)ccc4C)nn23)cc1C` [Example 577, 4-{6-(5-fluoro-2-methylphenoxy)-8-[(3,3,3-trifluoropropyl)a-mino]imidazo[1,2-b]pyridazin-3-yl}-N,2-dimethylbenzamide], the IC50 was found to be 1.4 nM.

Regarding `Cc1cc(-c2cnc3c(NCC(C)(C)N)cc(-c4ccccc4CO)nn23)ccc1C(=O)NC1CC1` [Example 59, 4-{8-[(2-Amino-2-methylpropyl)amino]-6-[2-(hydroxymethyl)phenyl]imidazo[1,2-b]pyridazin-3-yl}-N-cyclopropyl-2-methylbenzamide], the half-maximal inhibitory concentration (IC50) was 32.5 nM.

Consider `Cc1cc(-c2cnc3c(NC[C@H]4CC[S@@+]([O-])CC4)cc(Oc4cccnc4)nn23)ccc1C(=O)NC1CC1` [Example 296B, N-cyclopropyl-2-methyl-4-[8-({[(cis)-1-oxidotetrahydro-2H-thiopyran-4-yl]methyl}amino)-6-(pyridin-3-yloxy)imidazo[1,2-b]pyridazin-3-yl]benzamide], for which the IC50 was 0.5 nM.

In the case of `Cc1cc(-c2cnc3c(NCC(C)(C)N(C)C)cc(Oc4cccc(F)c4)nn23)ccc1C(=O)NC1CC1` [Example 497, N-cyclopropyl-4-[8-{[2-(dimethyl-amino)-2-methylpropyl]amino}-6-(3-fluorophenoxy)imidazo [1,2-b]pyridazin-3-yl]-2-methyl-benzamide], the IC50 was found to be 0.2 nM.

Regarding `Cc1cc(-c2cnc3c(NCC4CCN(C)CC4)cc(Oc4cccnc4)nn23)ccc1C(=O)NC1CC1` [Example 527, N-cyclopropyl-2-methyl-4-[8-{[(1-methylpiperidin-4-yl)methyl]amino}-6-(pyridin-3-yloxy)imidazo [1,2-b]pyridazin-3-yl]benzamide], the 50% inhibitory concentration (IC50) was determined as 0.6 nM.

`Cc1cc(-c2cnc3c(NCC4CCSCC4)cc(Oc4cccc(F)c4)nn23)ccc1C(=O)NC1CC1` [Example 281, N-cyclopropyl-4-{6-(3-fluorophenoxy)-8-[(tetrahydro-2H-thiopyran-4-ylmethyl)amino]imidazo[1,2-b]pyridazin-3-yl}-2-methylbenzamide]: the IC50 was 0.3 nM.

As for `CC(C)CNc1cc(Cl)nn2c(-c3ccc(C(N)=O)cc3)cnc12` [Example 176, 4-{6-Chloro-8-[(2-methylpropyl)amino]imidazo[1,2-b]pyridazin-3-yl}benzamide], the IC50 was 465 nM.

For `CC(C)(O)CNc1cc(Sc2ccccc2)nn2c(-c3ccc(C(=S)NC4CC4)cc3)cnc12` [Example 245, N-cyclopropyl-4-{8-[(2-hydroxy-2-methylpropyl)amino]-6-(phenylsulfanyl)imidazo[1,2-b]pyridazin-3-yl}benzenecarbothioamide], the IC50 amounted to 0.7 nM.

In the case of `Cc1ccc(F)c(Nc2cc(NCC(C)(C)O)c3ncc(-c4ccc(C(=O)NC5CC5)c(C)c4)n3n2)c1` [Example 383, N-cyclopropyl-4-{6-[(2-fluoro-5-methylphenyl)amino]-8-[(2-hydroxy-2-methylpropyl)amino]imidazo[1,2-b]pyridazin-3-yl}-2-methylbenzamide], the half-maximal inhibitory concentration (IC50) worked out at 0.3 nM.

On to `Cc1cc(-c2cnc3c(NCC(C)(C)O)cc(Nc4ccccc4O)nn23)ccc1C(=O)NC1CC1` [Example 431, N-cyclopropyl-4-{8-[(2-hydroxy-2-methylpropyl)amino]-6-[(2-hydroxyphenyl)amino]imidazo[1,2-b]pyridazin-3-yl}-2-methylbenzamide], for which the IC50 was determined as 0.1 nM.

On to `Cc1cc(-c2cnc3c(NCCC(F)(F)F)cc(Sc4ccc(F)cc4)nn23)ccc1C(=O)NC1CC1` [Example 250, N-cyclopropyl-4-{6-[(4-fluorophenyl)sulfanyl]-8-[(3,3,3-trifluoropropyl)amino]imidazo[1,2-b]pyridazin-3-yl}-2-methylbenzamide], for which the IC50 is 0.3 nM.

`COc1cc(C(=O)NC2CC2)ccc1-c1cnc2c(NCCC(F)(F)F)cc(-c3ccc(F)cc3)nn12` [Example 52, N-cyclopropyl-4-{6-(4-fluorophenyl)-8-[(3,3,3-trifluoropropyl)amino]imidazo[1,2-b]pyridazin-3-yl}-3-methoxybenzamide]: the IC50 was 3.2 nM.

On to `Cc1cc(-c2cnc3c(NCCCC(F)(F)F)cc(Nc4ccc(F)c(F)c4)nn23)ccc1C(=O)NC1CC1` [Example 447, N-cyclopropyl-4-{6-[(3,4-difluorophenyl)amino]-8-[(4,4,4-trifluorobutyl)amino]imidazo[1,2-b]pyridazin-3-yl}-2-methylbenzamide], for which the IC50 was 1.1 nM.

For the compound `Cc1cc(-c2cnc3c(NCC(C)(C)O)cc(-c4cc(C(F)(F)F)nn4C)nn23)ccc1C(=O)NC1CC1` [Example 235, N-cyclopropyl-4-{8-[(2-hydroxy-2-methylpropyl)amino]-6-[1-methyl-3-(trifluoromethyl)-1H-pyrazol-5-yl]imidazo[1,2-b]pyridazin-3-yl}-2-methylbenzamide], the IC50 came out at 6.2 nM.

Take `CNC(=O)c1ccc(-c2cnc3c(NCCN4CCOCC4)cc(Oc4ccccc4C)nn23)cc1C` [Example 563, N,2-dimethyl-4-[6-(2-methylphenoxy)-8-{[2-(morpholin-4-yl)ethyl]amino}imidazo[1,2-b]pyridazin-3-yl]benzamide]: the half-inhibitory concentration (IC50) came out at 4.3 nM.

In the case of `Cc1cc(-c2cnc3c(NCC(C)(C)O)cc(Oc4cccc5ncccc45)nn23)ccc1C(=O)NC1CC1` [Example 167, N-cyclopropyl-4-{8-[(2-hydroxy-2-methylpropyl)amino]-6-(quinolin-5-yloxy)imidazo[1,2-b]pyridazin-3-yl}-2-methylbenzamide], the IC50 is 2.3 nM.

For `Cc1cc(-c2cnc3c(NCC(C)(C)O)cc(Nc4ccc(Cl)c(F)c4)nn23)ccc1C(=O)NC1CC1` [Example 401, 4-{6-[(4-chloro-3-fluorophenyl)amino]-8-[(2-hydroxy-2-methylpropyl)amino]imidazo[1,2-b]pyridazin-3-yl}-N-cyclopropyl-2-methylbenzamide], the IC50 was 1 nM.

`COc1cc(C(=O)NC2CC2)ccc1-c1cnc2c(NCC(C)(C)O)cc(-c3ccnn3C)nn12` [Example 50, N-cyclopropyl-4-{8-[(2-hydroxy-2-methylpropyl)amino]-6-(1-methyl-1H-pyrazol-5-yl)imidazo[1,2-b]pyridazin-3-yl}-3-methoxybenzamide]: the IC50 came to 84.8 nM.

Take `CC(C)CNc1cc(Cl)nn2c(-c3ccc(-c4cnc(C5CC5)[nH]4)cc3)cnc12` [Example 184, 6-Chloro-3-[4-(2-cyclopropyl-1H-imidazol-5-yl)phenyl]-N-(2-methylpropyl)imidazo[1,2-b]pyridazin-8-amine]: the IC50 came out at 101 nM.

For `Cc1ccc(Cl)cc1Nc1cc(NCCC(F)(F)F)c2ncc(-c3ccc(C(=O)NC4CC4)c(C)c3)n2n1` [Example 377, 4-{6-[(5-chloro-2-methylphenyl)amino]-8-[(3,3,3-trifluoropropyl)amino]imidazo[1,2-b]pyridazin-3-yl}-N-cyclopropyl-2-methylbenzamide], the IC50 stood at 0.3 nM.
